In PubChem BioAssay AID256 (DTP/NCI, 2004):
Several values for one entry are separate records, joined by “and”; a condition that tells them apart may be missing. Equal entries are not always repeated. Toxic doses and inconclusive results are not listed. The calls were made as follows: active = survival T/C of 150% or more; inactive = T/C below 125% in these data.

Tested on: CD2F1 mice, L1210 leukemia ip, survival T/C
Assay: NCI In Vivo Anticancer Drug Screen. Data for tumor model L1210 Leukemia (intraperitoneal) in CD2F1 (CDF1) mice
Settings: endpoint: mean survival time, higher = longer survival
Method in brief: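 Read-out first: treated-group measurement over vehicle-control measurement, expressed as a ratio. Animals bore a transplanted tumor line and were dosed with compound or vehicle.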

[1] = dose: 100.0 mg/kg/injection, schedule: Q01DX009 (ip), vehicle: saline with Tween-80
[2] = dose: 200.0 mg/kg/injection, schedule: Q01DX009 (ip), vehicle: saline with Tween-80
[3] = dose: 400.0 mg/kg/injection, schedule: Q01DX009 (ip), vehicle: saline with Tween-80
[4] = dose: 25.0 mg/kg/injection, schedule: Q04DX002 (ip), vehicle: saline with Tween-80
[5] = dose: 50.0 mg/kg/injection, schedule: Q04DX002 (ip), vehicle: saline with Tween-80
[6] = dose: 100.0 mg/kg/injection, schedule: Q04DX002 (ip), vehicle: saline with Tween-80
[7] = dose: 200.0 mg/kg/injection, schedule: Q04DX002 (ip), vehicle: saline with Tween-80
[8] = dose: 12.5 mg/kg/injection, schedule: Q01DX009 (ip), vehicle: saline
[9] = dose: 25.0 mg/kg/injection, schedule: Q01DX009 (ip), vehicle: saline with Tween-80
[10] = dose: 50.0 mg/kg/injection, schedule: Q01DX009 (ip), vehicle: saline with Tween-80

Measured: T/C

O=C(CC(C(=O)c1ccccc1)c1ccccc1)c1ccccc1 (centres undefined)
inactive: dose: 100.0 mg/kg/injection, schedule: Q01DX001 (ip), vehicle: Klucel (hydroxypropylcellulose) (HPC) 90 % of control | dose: 200.0 mg/kg/injection, schedule: Q01DX001 (ip), vehicle: Klucel (hydroxypropylcellulose) (HPC) 101 % of control | dose: 400.0 mg/kg/injection, schedule: Q01DX001 (ip), vehicle: Klucel (hydroxypropylcellulose) (HPC) 98 % of control

CC(=O)CC(=O)Nc1cc(Cl)c(NC(=O)CC(C)=O)cc1Cl
inactive: dose: 44.0 mg/kg/injection, schedule: Q04DX003 (ip), vehicle: saline with Tween-80 104 % of control | dose: 66.0 mg/kg/injection, schedule: Q04DX003 (ip), vehicle: saline with Tween-80 96 % of control | [1] 97 % of control | dose: 100.0 mg/kg/injection, schedule: Q04DX003 (ip), vehicle: saline with Tween-80 98 % of control | dose: 150.0 mg/kg/injection, schedule: Q04DX003 (ip), vehicle: saline with Tween-80 100 % of control | [2] 97 % of control | [3] 97 % of control

CC(=O)c1c(C(=O)O)c(=O)oc2cc(O)ccc12
inactive: dose: 75.0 mg/kg/injection, schedule: Q01DX001 (ip), vehicle: saline 98 % of control | dose: 150.0 mg/kg/injection, schedule: Q01DX001 (ip), vehicle: saline 98 % of control | dose: 300.0 mg/kg/injection, schedule: Q01DX001 (ip), vehicle: saline 98 % of control

c1ccc(CCN2COc3c(ccc4cccnc34)C2)cc1
inactive: dose: 12.5 mg/kg/injection, schedule: Q04DX003 (ip), vehicle: saline with Tween-80 102 % of control | dose: 25.0 mg/kg/injection, schedule: Q04DX003 (ip), vehicle: saline with Tween-80 91 % of control | dose: 50.0 mg/kg/injection, schedule: Q04DX003 (ip), vehicle: saline with Tween-80 98 % of control

[Co+3].[NH-]CC(=O)O.[NH-]CC(=O)O.[NH-]CC(=O)O
inactive: [4] 104 % of control and 101 % of control | [5] 104 % of control and 96 % of control | [6] 104 % of control and 106 % of control | [7] 117 % of control

Cn1c(=O)c2c(nc(N3CCOCC3)n2CCCNCC(O)c2ccc(O)c(O)c2)n(C)c1=O (centres undefined)
inactive: dose: 12.5 mg/kg/injection, schedule: Q01DX005 (ip), vehicle: water 102 % of control | dose: 25.0 mg/kg/injection, schedule: Q01DX005 (ip), vehicle: water 96 % of control | dose: 50.0 mg/kg/injection, schedule: Q01DX005 (ip), vehicle: water 97 % of control | dose: 100.0 mg/kg/injection, schedule: Q01DX005 (ip), vehicle: water 96 % of control | dose: 200.0 mg/kg/injection, schedule: Q01DX005 (ip), vehicle: water 92 % of control

COC1N(C2CC(O)C(CO)O2)C(=O)NC(=O)C1(F)Br (centres undefined)
inactive: dose: 1.56 mg/kg/injection, schedule: Q01DX009 (ip), vehicle: saline 97 % of control and 108 % of control | dose: 3.12 mg/kg/injection, schedule: Q01DX009 (ip), vehicle: saline 115 % of control and 117 % of control | dose: 6.25 mg/kg/injection, schedule: Q01DX009 (ip), vehicle: saline 112 % of control | [8] 109 % of control | dose: 100.0 mg/kg/injection, schedule: Q04DX003 (ip), vehicle: saline 110 % of control | dose: 200.0 mg/kg/injection, schedule: Q04DX003 (ip), vehicle: saline 122 % of control

O=Cc1ccc(O)c(O)c1
inactive: [8] 93 % of control | [9] 106 % of control | dose: 25.0 mg/kg/injection, schedule: Q01DX009 (ip), vehicle: saline 98 % of control | [10] 106 % of control | dose: 50.0 mg/kg/injection, schedule: Q01DX009 (ip), vehicle: saline 98 % of control | [1] 114 % of control and 102 % of control | dose: 100.0 mg/kg/injection, schedule: Q01DX009 (ip), vehicle: saline 107 % of control | [2] 109 % of control | dose: 200.0 mg/kg/injection, schedule: Q01DX009 (ip), vehicle: saline 116 % of control | [3] 117 % of control

C[n+]1cccc(C(=O)N/N=C/CCc2ccccc2)c1
inactive: dose: 12.5 mg/kg/injection, schedule: Q01DX009 (ip), vehicle: saline with Tween-80 92 % of control | [9] 93 % of control | [4] 100 % of control | [10] 97 % of control | [5] 95 % of control | [1] 97 % of control | [6] 101 % of control | [7] 97 % of control
